From US8604023B2, “1,4-benzodiazepinone compounds and their use in treating cancer” (The Regents of the University of Michigan, priority 2009, dated 2013)

Legend:
Assay in all cases: cancer cell growth inhibition (SRB)
Format in all cases: cell-based, human
HS 578T = conditions: Breast Cancer
UO-31 = conditions: Renal Cancer
UACC-62 = conditions: Melanoma
K-562 = conditions: Leukemia
HCT-116 = conditions: Colon Cancer
MALME-3M = conditions: Melanoma
MDA-MB-468 = conditions: Breast Cancer
Source text: The compounds described herein can be tested for activity against various forms of cancer by testing for inhibition of cancer cell growth using in vitro assays. For example, compounds V-23 and V-38 (See Table 5 in Example 26) where tested for efficacy in inhibiting the growth of human cancer cells using the general procedure described below. The test evaluated compound activity for inhibiting cancer cell growth in over 50 cancer cell lines, which included non-small cell lung cancer, colon cancer, breast cancer, ovarian cancer, leukemia, renal cancer, melanoma, prostate cancer, and cancer of the central nervous system tissue. […]
Following addition of the test compound, the plates are incubated for an additional 48 h at 37° C., 5% CO2, 95% air, and 100% relative humidity. […] Bound stain is then solubilized with 10 mM trizma base, and the absorbance is read on an automated plate reader at a wavelength of 515 nm. […] Using seven absorbance measurements [time zero, (Tz), control growth, (C), and test growth in the presence of drug at the five concentration levels (Ti)], the percentage growth is calculated at each of the drug concentrations levels.
The percentage of growth inhibition caused by the test compounds on the cancer cell lines can be calculated using the following formulae: [(Ti−Tz)/(C−Tz)]×100 for concentrations for which Ti≧Tz [(Ti−Tz)/Tz]×100 for concentrations for which Ti<Tz

HCC-2998 = conditions: Colon Cancer

With `CN1C(=O)C(Cc2ccc3ccccc3c2)N=C(c2cn[nH]c2)c2cc(Cl)ccc21` (centres unmarked) [Compound V-38] the “growth inhibition of the cancer cells” value (HS 578T) was “+ (less than 40% growth inhibition of the cancer cells)”, the “growth inhibition of the cancer cells” value (UO-31) was “+++ (at least 75% growth inhibition of the cancer cells)” and the “growth inhibition of the cancer cells” value (UACC-62) was “+++ (at least 75% growth inhibition of the cancer cells)”. The “growth inhibition of the cancer cells” value (K-562) was “+ (less than 40% growth inhibition of the cancer cells)”, the “growth inhibition of the cancer cells” value (HCT-116) was “+++ (at least 75% growth inhibition of the cancer cells)” and the “growth inhibition of the cancer cells” value (MALME-3M) was “+++ (at least 75% growth inhibition of the cancer cells)”. The “growth inhibition of the cancer cells” value (MDA-MB-468) was “++ (40%-75% growth inhibition of the cancer cells)” and the “growth inhibition of the cancer cells” value (HCC-2998) was “+++ (at least 75% growth inhibition of the cancer cells)”.
